One assay relates to S. aureus (Gram+). Nature of the assay: Minimum inhibitory concentration (MIC) study of quaternary ammonium biocides. The class given is cell-based, Staphylococcus aureus. Conditions: unit assumed.
Assay [1] concerns B. anthracis Sterne strain (Gram+). Format: cell-based, Bacillus anthracis Sterne strain. Conditions: unit assumed.
The next assay concerns Escherichia coli (Gram−). Description: Minimum inhibitory concentration (MIC) study of quaternary ammonium biocides. The class given is cell-based. As to conditions: unit assumed.
Assay [2] has as its system Salmonella typhimurium (Gram−). The description is as above. Format: cell-based. Conditions: unit assumed.
A further assay has as its system S. aureus. Nature of the assay: Tube dilution method with neutralizing agent to quench residual biocide activity. Format: cell-based, Staphylococcus aureus. Conditions: starting cfu/mL 5.46 × 10^7; NG = no growth.
The next assay relates to E. coli. Described as above. Format: cell-based, Escherichia coli. Conditions: starting cfu/mL 4.76 × 10^7; NG = no growth.
A further assay relates to B. anthracis Sterne. Format: cell-based, Bacillus anthracis Sterne strain.

The structures appear in SMILES notation.

As for `CCCCCC[N+](C)(C)CCOCCOCCOCCOC.[Cl-]` [Entry 4], the MIC S. aureus (Gram+) against S. aureus (Gram+) was found to be 2.5 µg/mL. Also, in assay [1], the MIC B. anthracis (Gram+) amounted to 5 µg/mL. The compound also registered an MIC E. coli (Gram−) with Escherichia coli (Gram−) of 2.5 µg/mL. For the same compound, in assay [2], the MIC S. typhimurium (Gram−) amounted to 5 µg/mL.
In the assay on S. aureus (Gram+), `CCCCCC[N+](C)(C)CCOCCOCCOC.[Cl-]` [Entry 3] gave an MIC S. aureus (Gram+) above 5 µg/mL. In assay [1], this compound gave an MIC B. anthracis (Gram+) of 2.5 µg/mL. Besides, in the assay with Escherichia coli (Gram−), the MIC E. coli (Gram−) was 2.5 µg/mL. In assay [2], the MIC S. typhimurium (Gram−) was above 5 µg/mL.
For `CCCCCCCC[N+](C)(C)CCOCCOCCOC.[Cl-]` [Entry 7], the MIC S. aureus (Gram+) against S. aureus (Gram+) was found to be 0.5 µg/mL. Also, in assay [1], the MIC B. anthracis (Gram+) is 0.625 µg/mL. Besides, the MIC E. coli (Gram−) against Escherichia coli (Gram−) stood at 2.5 µg/mL. The compound also gave an MIC S. typhimurium (Gram−) in assay [2] of 2.5 µg/mL.
As to `CCCCCC[N+](C)(C)CCOCCOC.[Br-]` [Entry 2, Hexyl-[2-(2-methoxy-ethoxy)-ethyl]-dimethyl-ammonium bromide], the MIC S. aureus (Gram+) with S. aureus (Gram+) was above 5 µg/mL. For the same compound, the MIC B. anthracis (Gram+) in assay [1] was above 5 µg/mL. The compound further showed an MIC E. coli (Gram−) against Escherichia coli (Gram−) of 2.5 µg/mL. In assay [2], this compound showed an MIC S. typhimurium (Gram−) above 5 µg/mL.
For `CCCCCCCC[N+](C)(C)CCOCCOC.[Cl-]` [Entry 6], the MIC S. aureus (Gram+) with S. aureus (Gram+) is 0.31 µg/mL. The same compound had an MIC B. anthracis (Gram+) in assay [1] of 1.25 µg/mL. This compound also displayed an MIC E. coli (Gram−) with Escherichia coli (Gram−) of 2.5 µg/mL. In assay [2], this compound registered an MIC S. typhimurium (Gram−) of 5 µg/mL.
In the assay with S. aureus (Gram+), `CCCCCCCC[N+](C)(C)CCOCCO.[Cl-]` [Entry 9, Octyl-(2-(2-hydroxy-ethoxy)-ethyl)dimethylammonium chloride] returned an MIC S. aureus (Gram+) of 1.25 µg/mL. The compound further displayed an MIC B. anthracis (Gram+) in assay [1] of 1.25 µg/mL. In the assay on Escherichia coli (Gram−), this compound had an MIC E. coli (Gram−) of 5 µg/mL. In assay [2], this compound registered an MIC S. typhimurium (Gram−) of 5 µg/mL.
Consider `CCCCCC[N+](C)(C)CCOC.[Br-]` [Entry 1, Hexyl-(2-methoxy-ethyl)-dimethyl-ammonium bromide], for which, in the assay with S. aureus (Gram+), the MIC S. aureus (Gram+) is 2.5 µg/mL. The compound further displayed an MIC B. anthracis (Gram+) in assay [1] of 5 µg/mL. The same compound gave an MIC E. coli (Gram−) against Escherichia coli (Gram−) of 2.5 µg/mL. The MIC S. typhimurium (Gram−) in assay [2] is 2.5 µg/mL.
As to `CCCCCCCC[N+](C)(C)CCOCCOCCOCCOC.[Cl-]` [Entry 8], in the assay with S. aureus (Gram+), the MIC S. aureus (Gram+) stood at 0.8 µg/mL. This compound had an MIC B. anthracis (Gram+) in assay [1] of 0.312 µg/mL. This compound registered an MIC E. coli (Gram−) in the assay on Escherichia coli (Gram−) of 1.25 µg/mL. The MIC S. typhimurium (Gram−) in assay [2] amounted to 2.5 µg/mL.
As to `CCCCCCCC[N+](C)(C)CCOC.[Cl-]` [Entry 5], in the assay with S. aureus (Gram+), the MIC S. aureus (Gram+) amounted to 0.18 µg/mL. Also, in assay [1], the MIC B. anthracis (Gram+) is below 0.312 µg/mL. This compound also showed an MIC E. coli (Gram−) with Escherichia coli (Gram−) of 0.625 µg/mL. The compound further yielded an MIC S. typhimurium (Gram−) in assay [2] of 2.5 µg/mL.
Turning to `c1ccncc1` [Pyridinium], in the assay on S. aureus, the “S. aureus count after biocide, tube dilution method” value is 10^6 cfu/mL. For the same compound, in the assay with E. coli, the “E. Coli count after biocide, tube dilution method” value is recorded as 10^7 cfu/mL. In addition, the “B. anthracis S.S. count after biocide, tube dilution method” value with B. anthracis Sterne is 10^6 cfu/mL.
In the assay on S. aureus (Gram+), `CCCCCC[N+](C)(C)CCOCCO.[Cl-]` [Entry 10, Hexyl-(2-(2-hydroxy-ethoxy)-ethyl)dimethylammonium chloride] returned an MIC S. aureus (Gram+) above 5 µg/mL. In assay [1], this compound showed an MIC B. anthracis (Gram+) above 5 µg/mL. This compound displayed an MIC E. coli (Gram−) in the assay with Escherichia coli (Gram−) of 5 µg/mL. The MIC S. typhimurium (Gram−) in assay [2] is above 5 µg/mL.

The record behind these values is patent publication US7452951B2, “Multifunctional self-decontaminating surface coating” (priority 2004, dated 2008).
